# Values quoted from earlier work as cited in patent publication US20040170996A1, “Cytotoxic T-Lymphocyte antigen-4 or interleukin-10 polymorphisms as predictors of response to therapeutic intervention” (priority 2001, published 2004).
# Test system: interleukin-10 production
# Conditions: several in vitro studies
compound,measurement,value
"NC(=O)c1ncn([C@@H]2O[C@H](CO)[C@@H](O)[C@H]2O)n1 [Ribavirin, ribavirin]",Effect on interleukin-10 production,downregulate interleukin-10 production
